# Measured values from patent US10106544B2, “1,2-dihydro-3H-pyrrolo[1,2-C]imidazol-3-one derivatives and their use as antibacterial agents” (priority 2014, dated 2018).
# How the values were obtained:
# Assay in all cases: Bacterial growth minimal inhibitory concentration (microdilution, cation-adjusted Mueller-Hinton Broth)
# Format in all cases: cell-based
# P. aeruginosa ATCC27853 = details: for MIC: Pseudomonas aeruginosa, ATCC27853, quinolone-sensitive strain, read-out: MIC for P. aeruginosa ATCC27853
# Procedure: (§1) Minimal Inhibitory Concentrations (MICs; mg/L) were determined in cation-adjusted Mueller-Hinton Broth by a microdilution method following the description given in “Methods for Dilution Antimicrobial Susceptibility Tests for Bacteria that Grow Aerobically”, Approved standard, 7th ed., a Clinical and Laboratory Standards Institute (CLSI) Document M7-A7, Wayne, Pa., USA (2006).
# (§2) All Example compounds were tested against several Gram-positive and Gram-negative bacteria. […] K. pneumoniae A-651 is a multiply-resistant strain (in particular quinolone-resistant), while E. coli ATCC25922 and P. aeruginosa ATCC27853 are quinolone-sensitive strains.
# K. pneumoniae A-651 = details: multiply-resistant strain (in particular quinolone-resistant); for MIC: Klebsiella pneumoniae, A651, read-out: MIC for K. Pneumoniae A-651
# Procedure: as §1, §2
# E. coli ATCC25922 = details: quinolone-sensitive strain; for MIC: Escherichia coli, ATCC25922, read-out: MIC for E. coli ATCC25922
# Procedure: as §1, §2
SMILES,MIC (P. aeruginosa ATCC27853),MIC (K. pneumoniae A-651),MIC (E. coli ATCC25922),MIC for P. aeruginosa ATCC27853 (P. aeruginosa ATCC27853; quinolone-sensitive strain),MIC for K. Pneumoniae A-651 (K. pneumoniae A-651),MIC for E. coli ATCC25922 (E. coli ATCC25922)
"C[C@@](CCN1Cc2cc(C#CC#CC(CO)C3CCC3)cn2C1=O)(C(=O)NO)S(C)(=O)=O (mixture of isomers) [Example 60, (2R)-4-(6-((5RS)-5-cyclobutyl-6-hydroxyhexa-1,3-diyn-1-yl)-3-oxo-1H-pyrrolo[1,2-c]imidazol-2(3H)-yl)-N-hydroxy-2-methyl-2-(methylsulfonyl)butanamide]",4 µg/mL,1 µg/mL,0.5 µg/mL,,,
"CC(CCN1Cc2cc(-c3ccc(C4(O)COC4)cc3)cn2C1=O)(C(=O)NO)S(C)(=O)=O (racemic) [RE1, (RS)—N-hydroxy-4-(6-(4-(3-hydroxyoxetan-3-yl)phenyl)-3-oxo-1H-pyrrolo[1,2-c]imidazol-2(3H)-yl)-2-methyl-2-(methylsulfonyl)butanamide]",16 µg/mL,16 µg/mL,8 µg/mL,,,
"CCOC(C)(C)c1ccc(C#Cc2cc3n(c2)C(=O)N(CCC(C)(C(=O)NO)S(C)(=O)=O)C3)cc1 (racemic) [RE2, (RS)-4-(6-((4-(2-ethoxypropan-2-yl)phenyl)ethynyl)-3-oxo-1H-pyrrolo[1,2-c]imidazol-2(3H)-yl)-N-hydroxy-2-methyl-2-(methylsulfonyl)butanamide]",8 µg/mL,2 µg/mL,2 µg/mL,,,
"CC(CCN1Cc2cc(C#Cc3ccc(CO)cc3F)cn2C1=O)(C(=O)NO)S(C)(=O)=O (racemic) [RE3, (RS)-4-(6-((2-fluoro-4-(hydroxymethyl)phenyl)ethynyl)-3-oxo-1H-pyrrolo[1,2-c]imidazol-2(3H)-yl)-N-hydroxy-2-methyl-2-(methylsulfonyl)butanamide]",4 µg/mL,1 µg/mL,0.5 µg/mL,,,
"CC(C)(O)C#CC#Cc1cc2n(c1)C(=O)N(CCC(C)(C(=O)NO)S(C)(=O)=O)C2 (racemic) [RE5, (RS)—N-hydroxy-4-(6-(5-hydroxy-5-methylhexa-1,3-diyn-1-yl)-3-oxo-1H-pyrrolo[1,2-c]imidazol-2(3H)-yl)-2-methyl-2-(methylsulfonyl)butanamide]",4 µg/mL,8 µg/mL,2 µg/mL,,,
"CC(CCN1Cc2cc(-c3ccc(OCCO)cc3)cn2C1=O)(C(=O)NO)S(C)(=O)=O (racemic) [RE7, (RS)—N-hydroxy-4-(6-(4-(2-hydroxyethoxy)phenyl)-3-oxo-1H-pyrrolo[1,2-c]imidazol-2(3H)-yl)-2-methyl-2-(methylsulfonyl)butanamide]",8 µg/mL,8 µg/mL,4 µg/mL,,,
"COCCOc1ccc(-c2cc3n(c2)C(=O)N(CCC(C)(C(=O)NO)S(C)(=O)=O)C3)cc1 (racemic) [RE8, (RS)—N-hydroxy-4-(6-(4-(2-methoxyethoxy)phenyl)-3-oxo-1H-pyrrolo[1,2-c]imidazol-2(3H)-yl)-2-methyl-2-(methylsulfonyl)butanamide]",8 µg/mL,2 µg/mL,2 µg/mL,,,
"CC(C)Oc1ccc(-c2cc3n(c2)C(=O)N(CCC(C)(C(=O)NO)S(C)(=O)=O)C3)cc1F (racemic) [RE10, (RS)-4-(6-(3-fluoro-4-isopropoxyphenyl)-3-oxo-1H-pyrrolo[1,2-c]imidazol-2(3H)-yl)-N-hydroxy-2-methyl-2-(methylsulfonyl)butanamide]",2 µg/mL,8 µg/mL,0.25 µg/mL,,,
"C[C@@](CCN1Cc2cc(C#CC#C[C@@]3(F)C[C@@H]3CO)cn2C1=O)(C(=O)NO)S(C)(=O)=O (relative stereo) [Example 67, (R)-4-(6-(((1R*,2R*)-1-fluoro-2-(hydroxymethyl)cyclopropyl)buta-1,3-diyn-1-yl)-3-oxo-1H-pyrrolo[1,2-c]imidazol-2(3H)-yl)-N-hydroxy-2-methyl-2-(methylsulfonyl)butanamide]",,,,0.5 µg/mL,0.5 µg/mL,0.125 µg/mL
"C[C@@](CCN1Cc2cc(C#Cc3ccc(CO)cc3)cn2C1=O)(C(=O)NO)S(C)(=O)=O [Example 3, (R)-N-hydroxy-4-(6-((4-(hydroxymethyl)phenyl)ethynyl)-3-oxo-1H-pyrrolo[1,2-c]imidazol-2(3H)-yl)-2-methyl-2-(methylsulfonyl)butanamide]",2 µg/mL,0.5 µg/mL,0.125 µg/mL,,,

# The remaining lines, values ahead:
MIC (P. aeruginosa ATCC27853),MIC (K. pneumoniae A-651),MIC (E. coli ATCC25922),MIC for P. aeruginosa ATCC27853 (P. aeruginosa ATCC27853; quinolone-sensitive strain),MIC for K. Pneumoniae A-651 (K. pneumoniae A-651),MIC for E. coli ATCC25922 (E. coli ATCC25922),SMILES
2 µg/mL,0.5 µg/mL,0.25 µg/mL,,,,"CC(C)(O)C#Cc1ccc(-c2cc3n(c2)C(=O)N(CCC(C)(C(=O)NO)S(C)(=O)=O)C3)cc1 (racemic) [RE4, (RS)—N-hydroxy-4-(6-(4-(3-hydroxy-3-methylbut-1-yn-1-yl)phenyl)-3-oxo-1H-pyrrolo[1,2-c]imidazol-2(3H)-yl)-2-methyl-2-(methylsulfonyl)butanamide]"
2 µg/mL,8 µg/mL,2 µg/mL,,,,"CN1CCN(Cc2ccc(C#Cc3cc4n(c3)C(=O)N(CCC(C)(C(=O)NO)S(C)(=O)=O)C4)cc2)CC1 (racemic) [RE6, (RS)—N-hydroxy-2-methyl-4-(6-((4-((4-methylpiperazin-1-yl)methyl)phenyl)ethynyl)-3-oxo-1H-pyrrolo[1,2-c]imidazol-2(3H)-yl)-2-(methylsulfonyl)butanamide]"
0.5 µg/mL,2 µg/mL,0.125 µg/mL,,,,"Cc1ccc(-c2cc3n(c2)C(=O)N(CCC(C)(C(=O)NO)S(C)(=O)=O)C3)c(F)c1 (racemic) [RE9, (RS)-4-(6-(2-fluoro-4-methylphenyl)-3-oxo-1H-pyrrolo[1,2-c]imidazol-2(3H)-yl)-N-hydroxy-2-methyl-2-(methylsulfonyl)butanamide]"
1 µg/mL,0.5 µg/mL,0.125 µg/mL,,,,"C[C@@](CCN1Cc2cc(C#CC#C[C@@]3(F)C[C@@H]3CO)cn2C1=O)(C(=O)NO)S(C)(=O)=O (relative stereo) [Example 66, (R)-4-(6-(((1R*,2R*)-1-fluoro-2-(hydroxymethyl)cyclopropyl)buta-1,3-diyn-1-yl)-3-oxo-1H-pyrrolo[1,2-c]imidazol-2(3H)-yl)-N-hydroxy-2-methyl-2-(methylsulfonyl)butanamide]"
0.5 µg/mL,0.5 µg/mL,0.25 µg/mL,,,,"C[C@@](CCN1Cc2cc(C#CC#C[C@H]3C[C@]3(F)CO)cn2C1=O)(C(=O)NO)S(C)(=O)=O (single isomer, unassigned) [Example 78]"
0.5 µg/mL,0.25 µg/mL,0.25 µg/mL,,,,"C[C@@](CCN1Cc2cc(C#CC#C[C@@H]3C[C@@]3(F)CO)cn2C1=O)(C(=O)NO)S(C)(=O)=O (single isomer, unassigned) [Example 79]"
1 µg/mL,≤ 0.063 µg/mL,0.125 µg/mL,,,,"COc1ccc(-c2cc3n(c2)C(=O)N(CC[C@](C)(C(=O)NO)S(C)(=O)=O)C3)c(F)c1 [Example 1, (R)-4-(6-(2-fluoro-4-methoxyphenyl)-3-oxo-1H-pyrrolo[1,2-c]imidazol-2(3H)-yl)-N-hydroxy-2-methyl-2-(methylsulfonyl)butanamide]"
1 µg/mL,1 µg/mL,0.5 µg/mL,,,,"C[C@@](CCN1Cc2cc(C#Cc3ccc(C4(O)COC4)cc3)cn2C1=O)(C(=O)NO)S(C)(=O)=O [Example 2, (R)-N-hydroxy-4-(6-((4-(3-hydroxyoxetan-3-yl)phenyl)ethynyl)-3-oxo-1H-pyrrolo[1,2-c]imidazol-2(3H)-yl)-2-methyl-2-(methylsulfonyl)butanamide]"
